Laboratory results published in article PMC2776708 (Bioorganic & medicinal chemistry letters, 2009).
pIC50: −log10 of the molar value. Where two headings read alike, the source gives them in different places.

Columns and labels:
WNV NS2B-NS3 proteinase [1] = molecular target: T1, WNV NS2B-NS3 proteinase (West Nile virus, UniProt Q9Q6P4); assay: WNV NS2B-NS3 proteinase activity assay with Pyr-RTKR-AMC fluorogenic substrate; format: biochemical; conditions: for inhibitory activity (in words): qualitative statement
Stability = format: physicochemical; conditions: qualitative statement
[2] = Stability in the in vitro assay buffer without enzyme; format: physicochemical; conditions: absence of enzyme, Figure 2
WNV NS2B-NS3 proteinase [3] = molecular target: T1, WNV NS2B-NS3 proteinase; assay: Stability in the in vitro assay buffer with WNV NS2B-NS3 proteinase; conditions: Figure 2
WNV NS2B-NS3 proteinase [4] = molecular target: T1, WNV NS2B-NS3 proteinase; conditions: products of ester hydrolysis; cited from earlier work

T1 sequence (Q9Q6P4 1506-1683): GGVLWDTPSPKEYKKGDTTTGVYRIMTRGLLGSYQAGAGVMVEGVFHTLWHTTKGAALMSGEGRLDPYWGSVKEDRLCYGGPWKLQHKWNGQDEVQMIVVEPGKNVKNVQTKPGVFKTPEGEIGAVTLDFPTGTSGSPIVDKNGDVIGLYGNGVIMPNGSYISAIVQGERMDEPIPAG
T1 sequence (Q9Q6P4 1375-1505): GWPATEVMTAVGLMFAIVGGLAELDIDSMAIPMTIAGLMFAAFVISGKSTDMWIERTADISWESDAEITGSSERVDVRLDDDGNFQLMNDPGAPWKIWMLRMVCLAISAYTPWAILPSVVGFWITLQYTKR

## COc1ccc(S(=O)(=O)n2nc(OC(=O)c3ccccc3)cc2N)cc1 [Compound 1]
WNV NS2B-NS3 proteinase [1]
  pIC50: 6.98

## COc1ccc(S(=O)(=O)n2nc(OC(=O)c3cccs3)cc2N)cc1 [Compound 2]
WNV NS2B-NS3 proteinase [1]
  pIC50: 6.96

## COc1ccc(S(=O)(=O)n2nc(OC(=O)c3c(F)cccc3F)cc2N)cc1 [Compound 7a]
Stability
  stability in pH 8 buffer (in words): significantly more stable

## COc1ccc(S(=O)(=O)n2nc(OC(=O)c3ccc(F)cc3F)cc2N)cc1 [Compound 7e]
[2]
  stability in assay buffer (in words): relatively stable
WNV NS2B-NS3 proteinase [3]
  stability in presence of enzyme (in words): degraded rapidly

## COc1ccc(S(=O)(=O)n2nc(OC(=O)c3ccccc3C)cc2N)cc1 [Compound 7f]
WNV NS2B-NS3 proteinase [1]
  inhibitory activity (in words): retained its micromolar inhibitory activity

## COc1ccc(S(=O)(=O)n2nc(OC(=O)c3c(Cl)cccc3Cl)cc2N)cc1 [Compound 7n]
WNV NS2B-NS3 proteinase [1]
  pIC50: < 4.00
  inhibitory activity (in words): complete loss of activity

## COc1ccc(S(=O)(=O)n2nc(OC(=O)c3ccccc3OC)cc2N)cc1 [Compound 7o]
WNV NS2B-NS3 proteinase [1]
  inhibitory activity (in words): inactive

## COc1ccc(S(=O)(=O)n2nc(OC(=O)c3ccccc3[N+](=O)[O-])cc2N)cc1 [Compound 7p]
WNV NS2B-NS3 proteinase [1]
  pIC50: < 4.00
  inhibitory activity (in words): inactive

## COc1ccc(Cn2nc(C)cc2O)cc1 [Compound 8, 1-(4-methoxybenzyl)-3-methyl-1H-pyrazol-5-ol]
WNV NS2B-NS3 proteinase [4]
  pIC50: < 4.00

## COc1ccc(Cn2nc(C)cc2OC(=O)c2ccccc2)cc1 [Compound 10a]
Stability
  stability in pH 8 buffer (in words): significantly more stable
WNV NS2B-NS3 proteinase [3]
  stability in presence of enzyme (in words): approximately the same in the presence or absence of the enzyme

## COc1ccc(Cn2nc(C)cc2CC(O)c2ccccc2)cc1 (stereo not shown) [Compound 12a]
WNV NS2B-NS3 proteinase [1]
  pIC50: < 4.00

## COc1ccc(Cn2nc(C)cc2CC(O)c2c(F)cccc2F)cc1 (stereo not shown) [Compound 12b]
WNV NS2B-NS3 proteinase [1]
  pIC50: < 4.00

## COc1ccc(Cn2nc(C)cc2CC(=O)c2ccccc2)cc1 [Compound 13a]
WNV NS2B-NS3 proteinase [1]
  pIC50: < 4.00

## COc1ccc(Cn2nc(C)cc2/C=C/c2c(F)cccc2F)cc1 [Compound 14]
Stability
  stability in pH 8 buffer (in words): highly stable

## Cc1cc(NC(=O)c2ccccc2)n(-c2ccccc2)n1 [Compound 15]
Stability
  stability in pH 8 buffer (in words): highly stable
